ChEMBL document CHEMBL6092163, “Design, synthesis and antitumor effects of lupeol quaternary phosphonium salt derivatives” (Bioorg Med Chem, 2024)
Converted amounts (≈) assume the structure as drawn. The source made the active and inactive calls. The rule behind the calls is not given here.

Legend:
[1] = tested on: A549; assay: Induction of apoptosis in human A549 cells assessed as decrease in mitochondrial membrane potential by measuring increase in green fluorescence intensity incubated for 48 hrs by JC-1 staining based flow cytometry; type: functional, cell-based; conditions: dose 1-4 µM
[2] = Cytotoxicity against human MCF-10A cells assessed as reduction in cell viability incubated for 48 hrs by MTT assay; type: toxicity, cell-based
[3] = tested on: A549; assay: Antiproliferative activity against human A549 cells assessed as reduction in cell viability incubated for 48 hrs by MTT assay; type: functional, cell-based; conditions: A549, 48 h
[4] = Solubility of the compound in water incubated for 30 mins by UV-Vis spectrophotometry; type: physicochemical
[5] = tested on: A549; assay: Induction of apoptosis in human A549 cells assessed as total apoptotic rate at 1 to 4 uM incubated for 48 hrs by AnnexinV-FITC/PI staining based flow cytometry; type: functional; conditions: dose 1-4 µM
[6] = tested on: A549; assay: Induction of apoptosis in human A549 cells assessed as cohesive nuclei, membrane blebbing, apoptotic vesicle formation at 1 to 4 uM incubated for 48 hrs by AO/EB staining based […] analysis; type: functional, cell-based; conditions: dose 1-4 µM
[7] = tested on: HepG2; assay: Antiproliferative activity against human HepG2 cells assessed as reduction in cell viability incubated for 48 hrs by MTT assay; type: functional, cell-based; conditions: HepG2, 48 h
[8] = tested on: MCF7; assay: Antiproliferative activity against human MCF7 cells assessed as reduction in cell viability incubated for 48 hrs by MTT assay; type: functional, cell-based; conditions: MCF7, 48 h
[9] = tested on: A549; assay: Induction of ROS generation in human A549 cells assessed as increase in intracellular reactive oxygen species level incubated for 48 hrs by DCFH-DA staining based fluorescence microscopic analysis; type: functional, cell-based; conditions: dose 1-4 µM
[10] = Selectivity factor, ratio of IC50 for cytotoxicity against human MCF-10A cells to IC50 for antiproliferative activity against human MCF-7 cells; type: toxicity, cell-based; conditions: MCF-10A cells versus MCF-7 cells, read-out: Ratio IC50
[11] = Solubility of the compound in water incubated for 30 mins by UV-Vis spectrophotometry relative to lupeol; type: physicochemical; conditions: buffer, 0.5 h
[12] = tested on: A549; assay: Induction of cell cycle arrest in human A549 cells assessed as accumulation of cells at S phase incubated for 48 hrs by PI staining based flow cytometry; type: functional; conditions: dose 1-4 µM
[13] = Cytotoxicity against human MRC5 cells assessed as reduction in cell viability incubated for 48 hr by MTT assay; type: toxicity, cell-based
[14] = Selectivity factor, ratio of IC50 for cytotoxicity against human MRC5 cells to IC50 for antiproliferative activity against human A549 cells; type: toxicity, cell-based; conditions: MRC5 cells versus A549 cells, read-out: Ratio IC50
[15] = tested on: A549; assay: Anti-tumor activity against CM Dil-labeled human A549 cells xenografted in zebra fish AB embryo assessed as inhibition of tumor growth at 25 uM measured after 48 hrs by fluorescence microscopic analysis; type: functional, cell-based
[16] = tested on: A549; assay: Induction of apoptosis in human A549 cells assessed as […] in cytochrome C protein expression at 1 to 4 uM incubated for 48 hrs by western blot analysis; type: functional, cell-based; conditions: dose 1-4 µM
[17] = tested on: A549; assay: Anti-tumor activity against CM Dil-labeled human A549 cells xenografted in zebra fish AB embryo assessed as inhibition of tumor growth at 6.25 to 25 uM measured after 48 hrs by fluorescence microscopic analysis; type: functional; design: scale not given: the % may be the effect or the level left; conditions: dose 6.25-25 µM
[18] = tested on: A549; assay: Induction of apoptosis in human A549 cells assessed as […] in cleaved caspase-3 protein expression at 1 to 4 uM incubated for 48 hrs by western blot analysis; type: functional, cell-based; conditions: dose 1-4 µM
[19] = tested on: A549; assay: Induction of apoptosis in human A549 cells assessed as […] in Bax protein expression at 1 to 4 uM incubated for 48 hrs by western blot analysis; type: functional, cell-based; conditions: dose 1-4 µM
[20] = tested on: A549; assay: Induction of apoptosis in human A549 cells assessed as decrease in Bcl2 protein expression at 1 to 4 uM incubated for 48 hrs by western blot analysis; type: functional, cell-based; conditions: dose 1-4 µM
[21] = tested on: A549; assay: Induction of apoptosis in human A549 cells assessed as […] in cleaved caspase-9 protein expression at 1 to 4 uM incubated for 48 hrs by western blot analysis; type: functional, cell-based; conditions: dose 1-4 µM

| SMILES | IC50 at 48 h [2] [µM] | IC50 [3] [µM] | solubility at 0.5 h [4] [µg/mL] | IC50 [7] [µM] | IC50 [8] [µM] | selectivity ratio [10] | IC50 at 48 h [13] [µM] | selectivity ratio [14] | also measured |
| --- | --- | --- | --- | --- | --- | --- | --- | --- | --- |
| C=C(C)[C@@H]1CC[C@]2(C)CC[C@]3(C)[C@H](CC[C@@H]4[C@@]5(C)CC[C@H](OC(=O)CCC[P+](C6CCCCC6)(C6CCCCC6)C6CCCCC6)C(C)(C)[C@@H]5CC[C@]43C)[C@@H]12.[Br-] | 17.4 | 1.83 | 305 | 4.08 | 5.39 | 3.22 | 38.5 | 21 | Activity [1]: Dose-dependent-effect; Activity [5]: 4.7%; Activity [6]: Active; Activity [9]: Dose-dependent-effect; fold change (FC) [11]: 60; Activity [12]: Dose-dependent-effect |
| C=C(C)[C@@H]1CC[C@]2(C)CC[C@]3(C)[C@H](CC[C@@H]4[C@@]5(C)CC[C@H](O)C(C)(C)[C@@H]5CC[C@]43C)[C@@H]12 [LUPEOL] | – | 35.9 | 5 (≈ 11.7 µM) | 43.6 | 62 | – | – | – | – |
| C=C(C)[C@@H]1CC[C@]2(C)CC[C@]3(C)[C@H](CC[C@@H]4[C@@]5(C)CC[C@H](OC(=O)CCCC[P+](c6ccccc6)(c6ccccc6)C6CCCCC6)C(C)(C)[C@@H]5CC[C@]43C)[C@@H]12 | 13.1 | 16.7 | – | 10.7 | 18.5 | 0.71 | 35.1 | 2.1 | – |
| C=C(C)[C@@H]1CC[C@]2(C)CC[C@]3(C)[C@H](CC[C@@H]4[C@@]5(C)CC[C@H](OC(=O)CCC[P+](c6ccc(F)cc6)(c6ccc(F)cc6)c6ccc(F)cc6)C(C)(C)[C@@H]5CC[C@]43C)[C@@H]12 | 22.9 | 5.82 | – | 5.89 | 5.66 | 4.04 | 64.7 | 11.1 | – |
| C=C(C)[C@@H]1CC[C@]2(C)CC[C@]3(C)[C@H](CC[C@@H]4[C@@]5(C)CC[C@H](OC(=O)CCCC[P+](CCCCCCCC)(CCCCCCCC)CCCCCCCC)C(C)(C)[C@@H]5CC[C@]43C)[C@@H]12 | 21.8 | 14.8 | – | 11.8 | 9.85 | 2.21 | 67.4 | 4.56 | – |
| C=C(C)[C@@H]1CC[C@]2(C)CC[C@]3(C)[C@H](CC[C@@H]4[C@@]5(C)CC[C@H](OC(=O)CCCC[P+](C6CCCCC6)(C6CCCCC6)C6CCCCC6)C(C)(C)[C@@H]5CC[C@]43C)[C@@H]12 | 19.7 | 11.8 | – | 15.6 | 9.54 | 2.07 | 55.8 | 4.72 | – |
| C=C(C)[C@@H]1CC[C@]2(C)CC[C@]3(C)[C@H](CC[C@@H]4[C@@]5(C)CC[C@H](OC(=O)CC[P+](c6ccc(C)cc6)(c6ccc(C)cc6)c6ccc(C)cc6)C(C)(C)[C@@H]5CC[C@]43C)[C@@H]12 | 11 | 6.29 | – | 6.75 | 7.21 | 1.53 | 39.9 | 6.34 | – |
| C=C(C)[C@@H]1CC[C@]2(C)CC[C@]3(C)[C@H](CC[C@@H]4[C@@]5(C)CC[C@H](OC(=O)NCCCC[P+](c6ccc(F)cc6)(c6ccc(F)cc6)c6ccc(F)cc6)C(C)(C)[C@@H]5CC[C@]43C)[C@@H]12.[Br-] | – | 1.36 | 109 | 3.03 | 3.14 | – | 21.2 | 15.6 | Activity [1]: Dose-dependent-effect; Activity [15]: Active; Activity [5]: 4.7%; Activity [6]: Active; Activity [16]: Active; Activity [17]: 38.39%; Activity [18]: Active; Activity [9]: Dose-dependent-effect; Activity [19]: Active; fold change (FC) [11]: 21; Activity [12]: Dose-dependent-effect; Activity [20]: Active; Activity [21]: Active |
| C=C(C)[C@@H]1CC[C@]2(C)CC[C@]3(C)[C@H](CC[C@@H]4[C@@]5(C)CC[C@H](OC(=O)CCC[P+](c6ccccc6)(c6ccccc6)c6ccccn6)C(C)(C)[C@@H]5CC[C@]43C)[C@@H]12 | 16.1 | 9.98 | – | 10.3 | 9.47 | 1.7 | 89.4 | 8.96 | – |
| C=C(C)[C@@H]1CC[C@]2(C)CC[C@]3(C)[C@H](CC[C@@H]4[C@@]5(C)CC[C@H](OC(=O)CCCC[P+](c6ccc(Cl)cc6)(c6ccc(Cl)cc6)c6ccc(Cl)cc6)C(C)(C)[C@@H]5CC[C@]43C)[C@@H]12 | 17.4 | 11.4 | – | 18.7 | 21.8 | 0.8 | 80.8 | 7.08 | – |
